In patent publication US9597407B2, “Targeted antimicrobial moieties” (C3 Jian, Inc., priority 2009, dated 2017):
Entries after “also recorded” stand apart in the source; their conditions may differ.

test system: bacteria; assay: Binding of targeting peptides to microorganisms (Table 3); conditions: microorganism the targeting peptide binds; binding in aqueous buffers that varied with peptide solubility, preferably 1x PBS

| Substance | Target(s) |
| --- | --- |
| 1T-215 (VCFKDISVFLSPFRGQEVLFCGKAKHSLIYVIGT; Peptide with targeting and/or antimicrobial activity) [Peptide 1T-215] | S. sanguinis |
| 1T-216 (FFLNVIAIRIPHF; Peptide with targeting and/or antimicrobial activity) [Peptide 1T-216] | S. sanguinis |
| 1T-217 (MLSNVLSRSVVSPNVDIPNSMVILSPLLISISNYH; Peptide with targeting and/or antimicrobial activity) [Peptide 1T-217] | F. nucleatum; also recorded: S. sanguinis |
| 1T-218 (KLIFAALGLVFLLIGLRDSRSK; Peptide with targeting and/or antimicrobial activity) [Peptide 1T-218] | F. nucleatum; also recorded: S. sanguinis |
| 1T-219 (RNINVSATFITEKSLV; Peptide with targeting and/or antimicrobial activity) [Peptide 1T-219] | S. sanguinis |
| 1T-222 (RIEASLISAIMFSMFNAIVKFLQK; Peptide with targeting and/or antimicrobial activity) [Peptide 1T-222] | F. nucleatum; also recorded: S. sanguinis |
| 1T-237 (EDPVPNHFTLRRNKKEKPSKS; Peptide with targeting and/or antimicrobial activity) [Peptide 1T-237] | S. sanguinis |
| 1T-239 (ADDLLNKRLTDLIMENAETVKTIDLDNSD; Peptide with targeting and/or antimicrobial activity) [Peptide 1T-239] | A. naeslundii; also recorded: S. gordonii; also recorded: S. mitis; also recorded: S. mutans; also recorded: S. oralis; also recorded: S. sanguinis |
| 1T-242 (KQVQNTTLIICGTVLLGILFKSYLKSQKSV; Peptide with targeting and/or antimicrobial activity) [Peptide 1T-242] | F. nucleatum; also recorded: S. sanguinis |
| 1T-248 (IGGALNSCG; Peptide with targeting and/or antimicrobial activity) [Peptide 1T-248] | S. sanguinis |
| 1T-249 (VFSVLKHTTWPTRKQSWHDFISILEYSAFFALVIFIFDKLLTLGLAELLKRF; Peptide with targeting and/or antimicrobial activity) [Peptide 1T-249] | F. nucleatum; also recorded: S. sanguinis |
| 1T-250 (LVQGDTILIENHVGTPVKDDGKDCLIIREADVLAVVND; Peptide with targeting and/or antimicrobial activity) [Peptide 1T-250] | S. mitis; also recorded: S. mutans; also recorded: S. oralis |
| 1T-252 (MKKNLKRFYALVLGFIIGCLFVSILIFIGY; Peptide with targeting and/or antimicrobial activity) [Peptide 1T-252] | F. nucleatum; also recorded: S. sanguinis |
| 1T-256 (KGKSLMPLLKQINQWGKLYL; Peptide with targeting and/or antimicrobial activity) [Peptide 1T-256] | S. sanguinis |
| 1T-258 (TINIDDKVLDYLKKINSKAITIDLIGCAS; Peptide with targeting and/or antimicrobial activity) [Peptide 1T-258] | A. naeslundii; also recorded: F. nucleatum; also recorded: P. gingivalis; also recorded: T. denticola; also recorded: S. mitis; also recorded: S. mutans; also recorded: S. oralis |
| 1T-259 (EKLKKILLKLAVCGKAWYTL; Peptide with targeting and/or antimicrobial activity) [Peptide 1T-259] | F. nucleatum; also recorded: P. gingivalis; also recorded: T. denticola; also recorded: S. mitis; also recorded: S. mutans; also recorded: S. oralis; also recorded: S. sanguinis |
| 1T-260 (NILYFIHDENQWEPQKAEIFRGSIKHCAWLSS; Peptide with targeting and/or antimicrobial activity) [Peptide 1T-260] | A. naeslundii; also recorded: P. gingivalis; also recorded: S. epidermidis; also recorded: S. gordonii; also recorded: S. mitis; also recorded: S. mutans; also recorded: S. oralis; also recorded: S. sanguinis |
| 1T-261 (SFEKNKIENNLKIAQAYIYIKPKPRICQA; Peptide with targeting and/or antimicrobial activity) [Peptide 1T-261] | F. nucleatum; also recorded: S. mutans; also recorded: S. oralis; also recorded: S. sanguinis |
| 1T-264 (LEGKFYMAEDFDKTPECFKDYV; Peptide with targeting and/or antimicrobial activity) [Peptide 1T-264] | S. sanguinis |
| 1T-266 (RAGTWLVVDEIR; Peptide with targeting and/or antimicrobial activity) [Peptide 1T-266] | S. sanguinis |
| 1T-267 (RIKEERKNRSYKFFIWRLFDEKTGFI; Peptide with targeting and/or antimicrobial activity) [Peptide 1T-267] | A. naeslundii; also recorded: F. nucleatum; also recorded: P. gingivalis; also recorded: T. denticola; also recorded: S. mitis; also recorded: S. mutans; also recorded: S. oralis; also recorded: S. sanguinis |
| 1T-268 (PITPKKEKCGLGTYAPKNPVFSKSRV; Peptide with targeting and/or antimicrobial activity) [Peptide 1T-268] | F. nucleatum; also recorded: S. mutans; also recorded: S. oralis; also recorded: S. sanguinis |
| 1T-269 (PLYVAAVEKINTAKKH; Peptide with targeting and/or antimicrobial activity) [Peptide 1T-269] | F. nucleatum; also recorded: S. mutans; also recorded: S. oralis; also recorded: S. sanguinis |
| 1T-270 (VHEFDIQKILQNR; Peptide with targeting and/or antimicrobial activity) [Peptide 1T-270] | F. nucleatum; also recorded: S. mutans; also recorded: S. oralis; also recorded: S. sanguinis |
| 1T-272 (QLAPIDKQLKAVKKIAFYESESTAAKAVTVA; Peptide with targeting and/or antimicrobial activity) [Peptide 1T-272] | F. nucleatum; also recorded: S. mutans; also recorded: S. oralis; also recorded: S. sanguinis |
| 1T-273 (YNEPNYKWLESYKIYKQRCEDRTGMYYTEET; Peptide with targeting and/or antimicrobial activity) [Peptide 1T-273] | F. nucleatum; also recorded: P. gingivalis; also recorded: T. denticola; also recorded: S. mitis; also recorded: S. mutans; also recorded: S. oralis |
| 1T-274 (ETTTEINAIKLHRIKQRSPQGTRRVN; Peptide with targeting and/or antimicrobial activity) [Peptide 1T-274] | F. nucleatum; also recorded: S. mutans; also recorded: S. oralis; also recorded: S. sanguinis |
| 1T-282 (ISLVFPAYT; Peptide with targeting and/or antimicrobial activity) [Peptide 1T-282] | F. nucleatum; also recorded: P. gingivalis; also recorded: S. gordonii; also recorded: S. mitis; also recorded: S. mutans; also recorded: S. oralis; also recorded: S. salivarious; also recorded: S. sanguinis |
